Test results taken from US12024510B2, “Pyrazolopyridine-diamides, their use as insecticide and processes for preparing the same” (PI INDUSTRIES LTD., priority 2017, dated 2024).

Key:
Format in all cases: in vivo
Helicoverpa armigera = Helicoverpa armigera diet incorporation method; conditions: third instar larvae, dead and moribund combined, 96 h after release
How it was run: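 500 ppm stock of compound milled with surfactant and zirconia beads to average particle size below 2 μm, dispersed in DM water, diluted as needed, and mixed into semi-synthetic diet at about 50° C. Single starved third-instar larvae per cell, held at 25° C., 70% RH; dead plus moribund larvae scored as percent mortality at 96 h.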

Spodoptera litura = Spodoptera litura diet incorporation method; conditions: third instar larvae, dead and moribund combined, 96 h after release
How it was run: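 Compound milled to <2 μm average particle size in surfactant, dispersed in water (500 ppm stock dispersion), then mixed into semi-synthetic diet at ~50° C. One starved third-instar larva per diet cell, 25° C, 70% RH; percent mortality (dead plus moribund) scored at 96 h.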

Plutella xylostella = experiment: whole plant or invertebrate; conditions: foliar, cabbage leaf dip, second instar larvae, dead and moribund combined, 72 h after release
How it was run: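 Compounds milled with zirconia beads into surfactant dispersion (500 ppm stock), diluted in 0.01% Triton-X. Cabbage leaves dipped 10 s, shade-dried 20 min; one second-instar larva per cell, 25 °C, 70% RH. Mortality (dead plus moribund) scored at 72 h.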

Measured: mortality at 300 ppm

C=CCNC(=O)c1c(NC(=O)c2cc(OC)nn2-c2ncccc2Cl)c(C)cc2ccnn12 [Compound 44, N-allyl-6-(1-(3-chloropyridin-2-yl)-3-methoxy-1H-pyrazole-5-carboxamido)-5-methylpyrazolo[1,5-a]pyridine-7-carboxamide]
> 70%: all assays above

Cc1cc2ccnn2c(C(=O)NC(C)(C)C)c1NC(=O)c1cc(Cn2nnc(C(F)(F)F)n2)nn1-c1ncccc1Cl [Compound 170, N-(tert-butyl)-6-(1-(3-chloropyridin-2-yl)-3-((5-(trifluoromethyl)-2H-tetrazol-2-yl)methyl)-1H-pyrazole-5-carboxamido)-5-methylpyrazolo[1,5-a]pyridine-7-carboxamide]
> 70%: all assays above

Cc1cc2ccnn2c(C(=O)NCC2CCOCC2)c1NC(=O)c1cc(Br)nn1-c1ncccc1Cl [Compound 195, 6-(3-bromo-1-(3-chloropyridin-2-yl)-1H-pyrazole-5-carboxamido)-5-methyl-N-((tetrahydro-2H-pyran-4-yl)methyl)pyrazolo[1,5-a]pyridine-7-carboxamide]
> 70%: all assays above

Cc1cc2ccnn2c(C(=O)NCC2CC2)c1NC(=O)c1cc(OCC(F)(F)F)nn1-c1ncccc1Cl [Compound 14, 6-(1-(3-chloropyridin-2-yl)-3-(2,2,2-trifluoroethoxy)-1H-pyrazole-5-carboxamido)-N-(cyclopropylmethyl)-5-methylpyrazolo[1,5-a]pyridine-7-carboxamide]
> 70%: all assays above

CCCCNC(=O)c1c(NC(=O)c2cc(Br)nn2-c2ncccc2Cl)c(Cl)cc2ccnn12 [Compound 139, 6-(3-bromo-1-(3-chloropyridin-2-yl)-1H-pyrazole-5-carboxamido)-N-butyl-5-chloropyrazolo[1,5-a]pyridine-7-carboxamide]
> 70%: all assays above

Cc1cc2ccnn2c(C(=O)NCC#N)c1NC(=O)c1cc(Br)nn1-c1ncccc1Cl [Compound 28, 6-(3-bromo-1-(3-chloropyridin-2-yl)-1H-pyrazole-5-carboxamido)-N-(cyanomethyl)-5-methylpyrazolo[1,5-a]pyridine-7-carboxamide]
> 70%: all assays above

CONC(=O)c1c(NC(=O)c2cc(Br)nn2-c2ncccc2Cl)c(C)cc2ccnn12 [Compound 24, 6-(3-bromo-1-(3-chloropyridin-2-yl)-1H-pyrazole-5-carboxamido)-N-methoxy-5-methylpyrazolo[1,5-a]pyridine-7-carboxamide]
> 70%: all assays above

COc1cc(C(=O)Nc2c(C)cc3ccnn3c2C(=O)NCC2CC2)n(-c2ncccc2Cl)n1 [Compound 27, 6-(1-(3-chloropyridin-2-yl)-3-methoxy-1H-pyrazole-5-carboxamido)-N-(cyclopropylmethyl)-5-methylpyrazolo[1,5-a]pyridine-7-carboxamide]
> 70%: all assays above

Cc1cc2ccnn2c(C(=O)NCCC#N)c1NC(=O)c1cc(Br)nn1-c1ncccc1Cl [Compound 22, 6-(3-bromo-1-(3-chloropyridin-2-yl)-1H-pyrazole-5-carboxamido)-N-(2-cyanoethyl)-5-methylpyrazolo[1,5-a]pyridine-7-carboxamide]
> 70%: all assays above

C#CCNC(=O)c1c(NC(=O)c2cc(Br)nn2-c2ncccc2Cl)c(C)cc2ccnn12 [Compound 36, 6-(3-bromo-1-(3-chloropyridin-2-yl)-1H-pyrazole-5-carboxamido)-5-methyl-N-(prop-2-yn-1-yl)pyrazolo[1,5-a]pyridine-7-carboxamide]
> 70%: all assays above

CNC(=O)c1c(NC(=O)c2cc(Br)nn2-c2ncccc2Cl)c(Br)cc2ccnn12 [Compound 51, 5-bromo-6-(3-bromo-1-(3-chloropyridin-2-yl)-1H-pyrazole-5-carboxamido)-N-methylpyrazolo[1,5-a]pyridine-7-carboxamide]
> 70%: all assays above

CNC(=O)c1c(NC(=O)c2cc(N3CC(F)(F)C3)nn2-c2ncccc2Cl)c(C)cc2ccnn12 [Compound 68, 6-(1-(3-chloropyridin-2-yl)-3-(3,3-difluoroazetidin-1-yl)-1H-pyrazole-5-carboxamido)-N,5-dimethylpyrazolo[1,5-a]pyridine-7-carboxamide]
> 70%: all assays above

Cc1cc2ccnn2c(C(=O)NC(C)C)c1NC(=O)c1cc(OCC(F)(F)F)nn1-c1ncccc1Cl [Compound 12, 6-(1-(3-chloropyridin-2-yl)-3-(2,2,2-trifluoroethoxy)-1H-pyrazole-5-carboxamido)-N-isopropyl-5-methylpyrazolo[1,5-a]pyridine-7-carboxamide]
> 70%: all assays above

Cc1cc2ccnn2c(C(=O)NC(C)C2CC2)c1NC(=O)c1cc(C(F)(F)F)nn1-c1ncccc1Cl (stereo not drawn) [Compound 126, 6-(1-(3-chloropyridin-2-yl)-3-(trifluoromethyl)-1H-pyrazole-5-carboxamido)-N-(1-cyclopropylethyl)-5-methylpyrazolo[1,5-a]pyridine-7-carboxamide]
> 70%: all assays above

C=CCNC(=O)c1c(NC(=O)c2cc(Br)nn2-c2ncccc2Cl)c(Br)cc2ccnn12 [Compound 56, N-allyl-5-bromo-6-(3-bromo-1-(3-chloropyridin-2-yl)-1H-pyrazole-5-carboxamido)pyrazolo[1,5-a]pyridine-7-carboxamide]
> 70%: all assays above

Cc1cc2ccnn2c(C(=O)NC2CC2)c1NC(=O)c1cc(Br)nn1-c1ncccc1Cl [Compound 5, 6-(3-bromo-1-(3-chloropyridin-2-yl)-1H-pyrazole-5-carboxamido)-N-cyclopropyl-5-methylpyrazolo[1,5-a]pyridine-7-carboxamide]
> 70%: all assays above

COc1cc(C(=O)Nc2c(C)cc3ccnn3c2C(=O)NCC#N)n(-c2ncccc2Cl)n1 [Compound 40, 6-(1-(3-chloropyridin-2-yl)-3-methoxy-1H-pyrazole-5-carboxamido)-N-(cyanomethyl)-5-methylpyrazolo[1,5-a]pyridine-7-carboxamide]
> 70%: all assays above

CCNC(=O)c1c(NC(=O)c2cc(C(F)(F)F)nn2-c2ncccc2Cl)c(C)cc2ccnn12 [Compound 59, 6-(1-(3-chloropyridin-2-yl)-3-(trifluoromethyl)-1H-pyrazole-5-carboxamido)-N-ethyl-5-methylpyrazolo[1,5-a]pyridine-7-carboxamide]
> 70%: all assays above

Cc1cc2ccnn2c(C(=O)NC(C)(C)C)c1NC(=O)c1cc(C(F)(F)F)nn1-c1ncccc1Cl [Compound 58, N-(tert-butyl)-6-(1-(3-chloropyridin-2-yl)-3-(trifluoromethyl)-1H-pyrazole-5-carboxamido)-5-methylpyrazolo[1,5-a]pyridine-7-carboxamide]
> 70%: all assays above

Cc1cc2ccnn2c(C(=O)NCC2CC2)c1NC(=O)c1cc(N2CC(F)(F)C2)nn1-c1ncccc1Cl [Compound 67, 6-(1-(3-chloropyridin-2-yl)-3-(3,3-difluoroazetidin-1-yl)-1H-pyrazole-5-carboxamido)-N-(cyclopropylmethyl)-5-methylpyrazolo[1,5-a]pyridine-7-carboxamide]
> 70%: all assays above

CCNC(=O)c1c(NC(=O)c2cc(Br)nn2-c2ncccc2Cl)c(C)cc2ccnn12 [Compound 2, 6-(3-bromo-1-(3-chloropyridin-2-yl)-1H-pyrazole-5-carboxamido)-N-ethyl-5-methylpyrazolo[1,5-a]pyridine-7-carboxamide]
> 70%: all assays above
